Source: patent US20230295200A1 (REGENTS OF THE UNIVERSITY OF MICHIGAN, priority 2022, published 2023)
pKi: −log10 of the molar value.

These compounds were tested against T1, STAT6 protein (Homo sapiens, UniProt P42226) (assay: Fluorescence polarization (FP) binding assay, STAT6). Conditions: FP competition, 5 nM fluorescein-labeled tracer, 200 nM protein, PBS pH7.4; read-out: Binding STAT6.
T1 sequence (P42226 1-847): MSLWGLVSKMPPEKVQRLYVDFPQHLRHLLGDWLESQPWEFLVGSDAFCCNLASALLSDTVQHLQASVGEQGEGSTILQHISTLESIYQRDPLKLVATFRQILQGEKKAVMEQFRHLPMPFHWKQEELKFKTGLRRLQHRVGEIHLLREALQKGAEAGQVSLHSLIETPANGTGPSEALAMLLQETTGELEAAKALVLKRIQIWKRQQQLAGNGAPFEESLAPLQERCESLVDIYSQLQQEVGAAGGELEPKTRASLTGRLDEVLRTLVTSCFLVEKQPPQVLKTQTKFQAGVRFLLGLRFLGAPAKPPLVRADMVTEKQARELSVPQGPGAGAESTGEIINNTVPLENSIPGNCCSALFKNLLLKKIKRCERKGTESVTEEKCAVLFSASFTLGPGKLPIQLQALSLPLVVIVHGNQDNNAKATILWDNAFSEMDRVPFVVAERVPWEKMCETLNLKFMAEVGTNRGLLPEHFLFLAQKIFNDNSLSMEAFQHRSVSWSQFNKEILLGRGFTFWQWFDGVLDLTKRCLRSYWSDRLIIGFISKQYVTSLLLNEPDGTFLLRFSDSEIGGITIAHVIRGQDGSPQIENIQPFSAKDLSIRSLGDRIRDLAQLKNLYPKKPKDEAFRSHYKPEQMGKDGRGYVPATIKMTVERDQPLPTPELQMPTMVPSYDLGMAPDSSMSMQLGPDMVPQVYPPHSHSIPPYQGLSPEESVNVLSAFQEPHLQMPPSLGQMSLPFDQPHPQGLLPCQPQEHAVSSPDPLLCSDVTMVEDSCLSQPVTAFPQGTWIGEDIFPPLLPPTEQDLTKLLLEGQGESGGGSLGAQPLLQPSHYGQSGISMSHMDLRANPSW
In short: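 Polarization of a 5 nM fluorescein tracer bound by 200 nM STAT protein, measured after 1 h room-temperature equilibration in buffered PBS pH 7.4 with DTT, gave inhibition constants via nonlinear curve fitting.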

| SMILES | pKi |
| --- | --- |
| CCC(CC)CN1CCC(C[C@H](NC(=O)c2cc3cc(C(F)(F)P(=O)(O)O)ccc3s2)C(=O)N2CCC[C@H]2C(=O)N2CCO[C@H](c3ccccc3)C2)CC1 [Compound 295, ((2-(((S)-3-(1-(2-ethylbutyl)piperidin-4-yl)-1-oxo-1-((S)-2-((R)-2-phenylmorpholine-4-carbonyl)pyrrolidin-1-yl)propan-2-yl)carbamoyl)benzo[b]thiophen-5-yl)difluoromethyl)phosphonic acid] | 6.00 to 7.00 |
| O=C(N[C@@H](CC1CCN(CCc2ccccc2)CC1)C(=O)N1CCC[C@H]1C(=O)N1CCO[C@H](c2ccccc2)C1)c1cc2cc(C(F)(F)P(=O)(O)O)ccc2s1 [Compound 296, (difluoro(2-(((S)-1-oxo-3-(1-phenethylpiperidin-4-yl)-1-((S)-2-((R)-2-phenylmorpholine-4-carbonyl)pyrrolidin-1-yl)propan-2-yl)carbamoyl)benzo[b]thiophen-5-yl)methyl)phosphonic acid] | 6.00 to 7.00 |
| O=C(N[C@@H](CC1CCN(CCCc2ccccc2)CC1)C(=O)N1CCC[C@H]1C(=O)N1CCO[C@H](c2ccccc2)C1)c1cc2cc(C(F)(F)P(=O)(O)O)ccc2s1 [Compound 297, (difluoro(2-(((S)-1-oxo-1-((S)-2-((R)-2-phenylmorpholine-4-carbonyl)pyrrolidin-1-yl)-3-(1-(3-phenylpropyl)piperidin-4-yl)propan-2-yl)carbamoyl)benzo[b]thiophen-5-yl)methyl)phosphonic acid] | 6.00 to 7.00 |
| CC(C)(C)[C@H](NC(=O)c1cc2cc(C(F)(F)P(=O)(O)O)ccc2s1)C(=O)N1C[C@H](Oc2ccccc2)C[C@H]1C(=O)N1CCO[C@H](c2ccccc2)C1 [Compound 299, ((2-(((S)-3,3-dimethyl-1-oxo-1-((2S,4R)-4-phenoxy-2-((R)-2-phenylmorpholine-4-carbonyl)pyrrolidin-1-yl)butan-2-yl)carbamoyl)benzo[b]thiophen-5-yl)difluoromethyl)phosphonic acid] | 6.00 to 7.00 |
| CN1CC[C@H]2CC[C@@H](C(=O)N3CCc4ccccc4C3)N2C(=O)[C@@H](NC(=O)c2cc3cc(C(F)(F)P(=O)(O)O)ccc3[nH]2)C1 [Compound 330, (difluoro(2-(((5S,8S,10aR)-3-methyl-6-oxo-8-(1,2,3,4-tetrahydroisoquinoline-2-carbonyl)decahydropyrrolo[1,2-a][1,5]diazocin-5-yl)carbamoyl)-1H-indol-5-yl)methyl)phosphonic acid] | < 5.00 |
| CN1CC[C@H]2CC[C@@H](C(=O)N3CCc4ccccc4C3)N2C(=O)[C@@H](NC(=O)c2cc3cc(C(F)(F)P(=O)(O)O)ccc3s2)C1 [Compound 331, (difluoro(2-(((5S,8S,10aR)-3-methyl-6-oxo-8-(1,2,3,4-tetrahydroisoquinoline-2-carbonyl)decahydropyrrolo[1,2-a][1,5]diazocin-5-yl)carbamoyl)benzo[b]thiophen-5-yl)methyl)phosphonic acid] | < 5.00 |
| CC(=O)N1CC[C@H]2CC[C@@H](C(=O)N3CCc4ccccc4C3)N2C(=O)[C@@H](NC(=O)c2cc3cc(C(F)(F)P(=O)(O)O)ccc3[nH]2)C1 [Compound 332, ((2-(((5S,8S,10aR)-3-acetyl-6-oxo-8-(1,2,3,4-tetrahydroisoquinoline-2-carbonyl)decahydropyrrolo[1,2-a][1,5]diazocin-5-yl)carbamoyl)-1H-indol-5-yl)difluoromethyl)phosphonic acid] | < 5.00 |
| CC(=O)N1CC[C@H]2CC[C@@H](C(=O)N3CCc4ccccc4C3)N2C(=O)[C@@H](NC(=O)c2cc3cc(C(F)(F)P(=O)(O)O)ccc3s2)C1 [Compound 333, ((2-(((5S,8S,10aR)-3-acetyl-6-oxo-8-(1,2,3,4-tetrahydroisoquinoline-2-carbonyl)decahydropyrrolo[1,2-a][1,5]diazocin-5-yl)carbamoyl)benzo[b]thiophen-5-yl)difluoromethyl)phosphonic acid] | < 5.00 |
| CC(=O)N1CC[C@H]2CC[C@@H](C(=O)N3CCc4ccccc4C3)N2C(=O)[C@@H](NC(=O)c2ccc3ccc(C(F)(F)P(=O)(O)O)cc3c2)C1 [Compound 334, ((7-(((5S,8S,10aR)-3-acetyl-6-oxo-8-(1,2,3,4-tetrahydroisoquinoline-2-carbonyl)decahydropyrrolo[1,2-a][1,5]diazocin-5-yl)carbamoyl)naphthalen-2-yl)difluoromethyl)phosphonic acid] | < 5.00 |

The remaining lines, values ahead:

| pKi | SMILES |
| --- | --- |
| 6.00 to 7.00 | CN1CCC(C[C@H](NC(=O)c2cc3cc(C(F)(F)P(=O)(O)O)ccc3s2)C(=O)N2CCC[C@H]2C(=O)N2CCO[C@H](c3ccccc3)C2)CC1 [Compound 291, (difluoro(2-(((S)-3-(1-methylpiperidin-4-yl)-1-oxo-1-((S)-2-((R)-2-phenylmorpholine-4-carbonyl)pyrrolidin-1-yl)propan-2-yl)carbamoyl)benzo[b]thiophen-5-yl)methyl)phosphonic acid] |
| 6.00 to 7.00 | CCN1CCC(C[C@H](NC(=O)c2cc3cc(C(F)(F)P(=O)(O)O)ccc3s2)C(=O)N2CCC[C@H]2C(=O)N2CCO[C@H](c3ccccc3)C2)CC1 [Compound 292, ((2-(((S)-3-(1-ethylpiperidin-4-yl)-1-oxo-1-((S)-2-((R)-2-phenylmorpholine-4-carbonyl)pyrrolidin-1-yl)propan-2-yl)carbamoyl)benzo[b]thiophen-5-yl)difluoromethyl)phosphonic acid] |
| 6.00 to 7.00 | CC(C)CCN1CCC(C[C@H](NC(=O)c2cc3cc(C(F)(F)P(=O)(O)O)ccc3s2)C(=O)N2CCC[C@H]2C(=O)N2CCO[C@H](c3ccccc3)C2)CC1 [Compound 293, (difluoro(2-(((S)-3-(1-isopentylpiperidin-4-yl)-1-oxo-1-((S)-2-((R)-2-phenylmorpholine-4-carbonyl)pyrrolidin-1-yl)propan-2-yl)carbamoyl)benzo[b]thiophen-5-yl)methyl)phosphonic acid] |
| 6.00 to 7.00 | O=C(N[C@@H](CC1CCN(CC2CCCCC2)CC1)C(=O)N1CCC[C@H]1C(=O)N1CCO[C@H](c2ccccc2)C1)c1cc2cc(C(F)(F)P(=O)(O)O)ccc2s1 [Compound 294, ((2-(((S)-3-(1-(cyclohexylmethyl)piperidin-4-yl)-1-oxo-1-((S)-2-((R)-2-phenylmorpholine-4-carbonyl)pyrrolidin-1-yl)propan-2-yl)carbamoyl)benzo[b]thiophen-5-yl)difluoromethyl)phosphonic acid] |
| > 7.00 | CC(C)(C)[C@H](NC(=O)c1cc2cc(C(F)(F)P(=O)(O)O)ccc2s1)C(=O)N1C[C@H](OCc2ccccc2)C[C@H]1C(=O)N1CCO[C@H](c2ccccc2)C1 [Compound 300, ((2-(((S)-1-((2S,4R)-4-(benzyloxy)-2-((R)-2-phenylmorpholine-4-carbonyl)pyrrolidin-1-yl)-3,3-dimethyl-1-oxobutan-2-yl)carbamoyl)benzo[b]thiophen-5-yl)difluoromethyl)phosphonic acid] |
| > 7.00 | CC(C)(C)[C@H](NC(=O)c1cc2cc(C(F)(F)P(=O)(O)O)ccc2s1)C(=O)N1C[C@@H](Oc2ccccc2)C[C@H]1C(=O)N1CCO[C@H](c2ccccc2)C1 [Compound 301, ((2-(((S)-3,3-dimethyl-1-oxo-1-((2S,4S)-4-phenoxy-2-((R)-2-phenylmorpholine-4-carbonyl)pyrrolidin-1-yl)butan-2-yl)carbamoyl)benzo[b]thiophen-5-yl)difluoromethyl)phosphonic acid] |
